Measured values taken from patent US11249161B2, “Magnetic resonance method for detecting molecular binding with enhanced sensitivity” (The Johns Hopkins University, priority 2017, dated 2022).

Columns and labels:
mouse brain = assay: In vivo IMMOBILISE MRI in mice after caffeine infusion
Protocol: All experiments were performed in accordance with Institutional Animal Care and Use Committee guidelines and approved by the Johns Hopkins University Animal Care and Use Committee. Eight 6-8 week old female BALB/c mice, were anesthetized by isoflurane and kept warm with a heating pad and kept in place with a stereotactic holder. […] A home-built catheter was connected to a syringe infusion through PE-50 tubing.
MRI experiments were acquired on a 11.7 T Bruker Biospec preclinical scanner (Bruker, Ettlingen, Germany) equipped with a 72 mm quadrature volume resonator for RF transmission and a 2×2 mouse phased array coil for RF reception. The saturation preparation consisted of a 3 s, 0.5 μT CW saturation pulse followed by a two-shot FSE readout. The FSE readout parameters were TR/TE=6000/4 ms, a 64×64 acquisition matrix across a field of view of 17×17 mm and slice thickness of 1 mm. […] Acquisition of each partial Z-spectra took 105 s and was continued for 1-hour post bolus and then a complete Z-spectrum was again acquired.
(§1) Maps were generated by mapping the signal difference (pre minus post infusion) between the partial spectra (−1.0 to −2.0 ppm). Field correction for static field (B0) inhomogeneities was done by creating field maps from the low power Z-spectra acquired in our study and shifting the Z-spectra voxel wise according to the WASSR method^27.

[1] = molecular target: bovine serum albumin (BSA) (Bos taurus, UniProt P02769)
Chain of bovine serum albumin (BSA) (P02769 25-607): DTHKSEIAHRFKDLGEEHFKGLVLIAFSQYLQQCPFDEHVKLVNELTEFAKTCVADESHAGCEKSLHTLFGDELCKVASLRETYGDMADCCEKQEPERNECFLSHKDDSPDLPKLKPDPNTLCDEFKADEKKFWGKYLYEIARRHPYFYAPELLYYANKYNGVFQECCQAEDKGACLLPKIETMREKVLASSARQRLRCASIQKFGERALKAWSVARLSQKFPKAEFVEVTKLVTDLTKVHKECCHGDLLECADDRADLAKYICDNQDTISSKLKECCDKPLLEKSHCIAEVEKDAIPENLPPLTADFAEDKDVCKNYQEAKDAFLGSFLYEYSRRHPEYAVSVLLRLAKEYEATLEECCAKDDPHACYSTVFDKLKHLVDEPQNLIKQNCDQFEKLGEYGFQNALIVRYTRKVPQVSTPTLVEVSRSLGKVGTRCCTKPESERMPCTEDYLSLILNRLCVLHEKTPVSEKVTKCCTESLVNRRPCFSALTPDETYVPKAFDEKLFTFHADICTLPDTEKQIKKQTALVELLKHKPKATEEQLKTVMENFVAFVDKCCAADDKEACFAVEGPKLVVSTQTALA
Text: as §1

SMILES: Cn1c(=O)c2c(ncn2C)n(C)c1=O [caffeine]
- concentration of caffeine in mouse blood (estimate) (mouse brain; 2 mL blood, 50 μL of 100 mM caffeine infused): about 2.5 mM
- change in water signal (detection sensitivity) (mouse brain; mice, after caffeine infusion, about 2.5 mM in blood): 1-3%
- factor of enhancement (mouse brain; mice, in vivo): 30-100
- factor in sensitivity enhancement [1]: ~1000
